# Results as given in patent US8222242B2, “Nitric oxide releasing compounds” (The Regents of the University of California, priority 2008, dated 2012).
# Where two headings read alike, the source gives them in different places.
# Experiments:
# [1] = system: Malpighian tubules isolated from D. melanogaster; experiment: Malpighian tubule fluid secretion; set-up: species or system Drosophila melanogaster
# Procedure: Malpighian tubules are the osmoregulatory organs of D. melanogaster, corresponding to vertebrate kidneys. Tubular fluid secretion is stimulated by NO and cGMP, and fluid secretion rates were measured as described previously (Broderick K E et al. (2005) J. Biol. Chem. 280:8678-85). Briefly, the Malpighian tubule pair of a fly was resected and suspended in mineral oil. […]
# Malpighian tubules are an excellent model for studying the effects of a drug on an intact organ system (Broderick K E et al. (2003) Am. J. Physiol. Cell Physiol. 285:C1207-18). […] Deta-NONOate may not be affected as much by cysteine in the medium, because it has a slower NO release rate and the intact drug can be transported intracellularly before much NO is released.
# [2] = system: vasodilator-stimulated phosphoprotein (VASP) phosphorylated on Ser239 in CS-54 rat vascular smooth muscle cells; experiment: VASP phosphorylation in CS-54 cells (immunoblot); format: cell-based
# Procedure: CS-54 rat vascular smooth muscle cells were treated with the indicated concentrations of NO-Cbi for 1 hour (A), or 10 μM NO-Cbi for the indicated times (B and C). […] In A and B, “Con” refers to control, which was cells treated with water. As indicated, the effects of 30 μM cobinamide (Cbi) and 100 μM 8-CPT-cGMP (cGMP) are shown for comparison. In A and B, similar results were obtained in two other experiments.
# Briefly, cells treated with an NO-releasing agent were extracted rapidly in a sodium dodecyl sulfate (SDS) containing sample buffer, and the cell extracts were subjected to SDS-polyacrylamide gel electrophoresis. Phospho-VASP was assessed by immunoblotting using an antibody specific for VASP phosphorylated on Ser259 (Smolenski A et al. (1998) J. Biol. Chem. 273:20029-35).
# To determine if NO released from NO-Cbi can have a physiologic effect in cultured cells, vasodilator-stimulated phosphoprotein (VASP) phosphorylation was assessed in CS-54 cells.
# rabbits = experiment: Tissue hemoglobin and cytochrome c oxidase in rabbit muscle and brain (DOS, continuous wave near-infrared spectroscopy); format: in vivo
# Procedure: NO-Cbi at a dose of 5 μg/kg/min (4.8 nmol/kg/min) was given to a 4 kg rabbit starting at 2 minutes and ending at 11.5 minutes; the drug's effect was monitored by diffuse optical spectroscopy (DOS) over the left thigh muscle. […] All of these changes reversed within 1 minute of stopping the NO-Cbi with a small overshoot in both the oxy- and deoxyhemoglobin concentrations.
# NO-Cbi was given to a 3.9 kg rabbit at doses of 6.87, 3.44, and 1.72 μg/kg/min (6.6, 3.3, 1.7 nmol/kg/min), as indicated in the brown rectangular boxes corresponding to drug infusion rates of 1.8, 0.9, and 0.45 ml/min, respectively. Infusion times were for 10 minutes, followed by a 20 minute wash-out period. Oxy-, deoxy- and total hemoglobin concentrations were monitored in the brain by continuous wave near-infrared spectroscopy; changes in hemoglobin concentration are shown as relative units, because continuous wave spectroscopy is not quantitative due to light loss from scattering. As occurred in peripheral muscle (FIG. 7), NO-Cbi caused the deoxyhemoglobin concentration to increase and the oxyhemoglobin concentration to decrease. […] The gradual decrease in total hemoglobin over time was from blood sampling for blood gases and blood hemoglobin content. A dose response effect of NO-Cbi on all three hemoglobin concentration changes can be seen.
# Continuous intravenous NO-Cbi infusions were performed in anesthetized rabbits with systemic hemodynamic monitoring, continuous gas exchange analysis, and diffuse optical spectroscopy (DOS) and continuous wave near-infrared spectroscopy monitoring. DOS monitoring was over muscle as a representation of peripheral tissue, and continuous wave spectroscopy was over muscle and brain region. Six animals have been studied to date, varying NO-Cbi infusion rates in each animal between 1.7 and 6.9 μg/kg/min (1.6 and 6.7 nmol/kg/min).
# [3] = for change of spectrum: room temperature, open to air
# Procedure: NO-Cbi was diluted 100-fold into DMEM containing 10% FBS, transferred to a cuvette, and analyzed immediately by spectrophotometry between 300 and 600 nm (curve a). Spectra were obtained every 30 minutes for 3 hours, generating the family of curves, with curve b being the 3 hour spectrum; in the inset, curve b is the spectrum at 16 hours. The cuvette was open to air and kept at room temperature. The same experiment was repeated two times with similar results.
# NO-Cbi was diluted 100-fold in water, PBS, or DMEM containing 10% FBS to a final concentration of 50 uM. It was analyzed spectrophotometrically between 300 and 600 nm in a Kontron 860 spectrophotometer, and by mass spectroscopy using a LCQ classic ion-trap-type mass spectrometer (Thermo-Finnigan) at 160° C. capillary temperature and 5000V spray voltage. The mass spectrometry data were acquired in profile mode and analyzed on Xcalibur software.
# mice = format: in vivo, mouse
# Procedure: Mice were anesthetized with 1.5% isoflurane gas, and after achieving a stable blood pressure and pulse (about 10 minutes), they were injected intraperitoneally with 100 μl of […] 8 mM Cbi(II) (open circles, solid line), 8 mM NO-Cbi (filled circles, dashed line), or 8 mM nitroglycerin (squares, dotted lines) (panels a and b). Control refers to anesthetized mice who received 100 μl water (triangles, solid line). In panel C, 100 μl of 6 mM NO-Cbi was injected at 0, 32, and 64 minutes as indicated by the arrows. Systolic and diastolic blood pressures, and pulse rate, were measured at the indicated times on the tail artery using a non-invasive tail cuff. The percent change in mean arterial pressure (A and C), and pulse rate (B and C) are shown. For panels A and B, data are the mean±SD of results from five mice for NO-Cbi studied on separate days, and four mice for the other conditions. […] Data in panel C are the mean±SD of results from three mice studied on different days.
# Pulse, and systolic and diastolic blood pressures, were measured non-invasively in the tail artery of mice by restraining mice on a warming platform maintained at ˜38° C. The base of the tail was placed in a computer-controlled pneumatic cuff, and the distal tail was placed in a sensor assembly consisting of a light emitting diode and a photodiode detector. Baseline measurements were made with the mice awake in a dark chamber. The mice were then anesthetized with 3% isoflurane in an induction chamber, and returned to the platform where they received 1.5% isoflurane with 2 liter per minute of oxygen via a nose cone; the isoflurane caused a small, but stable, drop in blood pressure. Drugs in a volume of 100 ul were injected intraperitoneally into the mice, and pulse and blood pressure were measured every 5-15 minute, taking five readings at each time point.
# To determine the effect of NO release from NO-Cbi in an intact mammal, blood pressure and pulse of mice injected intraperitoneally with NO-Cbi were measured.
# [4] = incubated with excess heme; cited from earlier work
smiles,measurement,setting,value
"CC1=C2[N+]3=C(C=C4[N+]5=C(C(C)=C6[N]7C(C(CC(N)=O)C6(C)CCC(=O)NCC(C)O)C6(C)[N+](=C1C(CCC(N)=O)C6(C)CC(N)=O)[Co-3]753[N]=O)C(CCC(N)=O)C4(C)C)C(CCC(N)=O)C2(C)CC(N)=O (centres unmarked) [NO-Cbi, nitrosyl cobinamide]",rate of tubular secretion relative to cobinamide-treated tubules,"[1]; 1 mM, 70 minute time point (50 minutes after adding drugs), half-strength Schneider's medium",1.6 times
same,fluid secretion,"[1]; 1 mM, half-strength Schneider's medium","stimulated fluid secretion to a similar extent as 100 μM 8-CPT-cGMP, but somewhat less than 500 μM Deta-NONOate"
same,fluid secretion,[1]; full strength of Schneider's medium,no effect
same,course of VASP phosphorylation after the maximum,[2]; 10 μM NO-Cbi,declined over the ensuing 4 hours
same,time at which effect on VASP phosphorylation could be observed,[2]; 10 μM NO-Cbi,15 min
same,time of maximal effect on VASP phosphorylation,[2]; 10 μM NO-Cbi,30 to 60 min
same,VASP phosphorylation,"[2]; 1 to 30 μM, 1 hour, CS-54 cells",induced VASP phosphorylation
same,time for changes to reverse after stopping NO-Cbi,"rabbits; 5 μg/kg/min, thigh muscle, DOS",≤ 1 min
same,total tissue hemoglobin,rabbits; brain,increased slightly in brain
same,deoxyhemoglobin concentrations,rabbits; brain and muscle,increased deoxyhemoglobin concentrations
same,hemoglobin oxygen saturation,rabbits; brain and muscle,decrease in hemoglobin oxygen saturation
same,tissue oxyhemoglobin concentrations,rabbits; brain and muscle,decreased tissue oxyhemoglobin concentrations
same,cytochrome redox state,rabbits; muscle,decreasing the cytochrome redox state
same,total tissue hemoglobin,rabbits; muscle,decreased slightly in muscle
same,time for spectrum to change to that of cobinamide,[3]; DMEM containing 10% FBS,about 3 h
same,effect on NO-Cbi's half-life,[3]; buffer,significantly reduced
same,half-life,[3]; buffer,~1.5 h
same,change of spectrum,[3]; phosphate-buffered saline (PBS),little spectral change
same,change of spectrum,"[3]; water, 16 hours",did not change
same,systolic and diastolic blood pressure,"mice; 0.8 μmol (100 μl of 8 mM) intraperitoneally, anesthetized mice",rapidly reduced
same,increase of pulse rate compared with nitroglycerin,mice; 0.8 μmol intraperitoneally,more pronounced than that observed with nitroglycerin
same,time required for blood pressure to return to control values,mice; 0.8 μmol intraperitoneally,~45 min
same,blood pressure reduction compared with nitroglycerin,"mice; equimolar amounts, intraperitoneally",reduced blood pressure more potently than an equimolar amount of nitroglycerin
same,half-life of NO-Cbi in the mice,"mice; mouse, in vivo",0.5 to 1 h
same,pulse rate above control values,mice; until 75 minutes,more than 10%
same,half-life,[4],short
